System: NCI/ADR-RES complex spheroid viability
Assay: Anticancer human tumor NCI/ADR-RES cell line growth inhibition;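 on viability, T/C: 100% = DMSO vehicle treated spheroids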
Details: for IC50: curve of first compound; for viability, T/C: stronger effect = lower value
Method in brief: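 Complex spheroids of tumor cells with HUVEC and human MSCs, exposed to iadademstat combined with other agents. Each agent tested in half-log steps from near clinical Cmax (else 10 microM top), DMSO ≤0.25%.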

[1] = second compound 0.1 µM, first compound 0.0316 µM
[2] = second compound 0.1 µM, first compound 0.1 µM
[3] = second compound 0.316 µM, first compound 0.0316 µM
[4] = second compound 0.316 µM, first compound 0.1 µM
[5] = second compound 1 µM, first compound 0.0316 µM
[6] = second compound 1 µM, first compound 0.1 µM
[7] = second compound 3.16 µM, first compound 0.0316 µM
[8] = second compound 3.16 µM, first compound 0.1 µM
[9] = second compound 10 µM, first compound 0.0316 µM
[10] = second compound 10 µM, first compound 0.1 µM

`COc1ccc([C@@H](O)c2cc(-c3ncnc4cc(N5CCOCC5)ccc34)c(F)cc2Cl)nn1` + NC1CCC(NC2CC2c2ccccc2)CC1 was tested, and the IC50 (second compound 0.1 µM) was 3590 nM, the IC50 (second compound 0.316 µM) was 3970 nM and the IC50 (second compound 1 µM) was 3120 nM. The IC50 (second compound 3.16 µM) was 2970 nM, the IC50 (second compound 10 µM) was 2060 nM and the viability, T/C [1] was 102%. The viability, T/C [2] was 90.2%, the viability, T/C (second compound 0.1 µM, first compound 0.316 µM) was 91.8% and the viability, T/C (second compound 0.1 µM, first compound 1 µM) was 89.8%. For the same compound, the viability, T/C (second compound 0.1 µM, first compound 3.16 µM) was 52.8%, the viability, T/C (second compound 0.1 µM, first compound 10 µM) was 26.9% and the viability, T/C [3] was 108%. The viability, T/C [4] was 105%, the viability, T/C (second compound 0.316 µM, first compound 0.316 µM) was 89.7% and the viability, T/C (second compound 0.316 µM, first compound 1 µM) was 82.7%. The viability, T/C (second compound 0.316 µM, first compound 3.16 µM) was 53.5%, the viability, T/C (second compound 0.316 µM, first compound 10 µM) was 28.2% and the viability, T/C [5] was 102%. For the same compound, the viability, T/C [6] was 97.8%, the viability, T/C (second compound 1 µM, first compound 0.316 µM) was 90.6% and the viability, T/C (second compound 1 µM, first compound 1 µM) was 74.1%. The viability, T/C (second compound 1 µM, first compound 3.16 µM) was 49.5%, the viability, T/C (second compound 1 µM, first compound 10 µM) was 27.9% and the viability, T/C [7] was 101%. The viability, T/C [8] was 105%, the viability, T/C (second compound 3.16 µM, first compound 0.316 µM) was 93.6% and the viability, T/C (second compound 3.16 µM, first compound 1 µM) was 73.3%. For the same compound, the viability, T/C (second compound 3.16 µM, first compound 3.16 µM) was 50%, the viability, T/C (second compound 3.16 µM, first compound 10 µM) was 28.5% and the viability, T/C [9] was 89.7%. For the same compound, the viability, T/C [10] was 86.3%, the viability, T/C (second compound 10 µM, first compound 0.316 µM) was 85.6% and the viability, T/C (second compound 10 µM, first compound 1 µM) was 64.8%. For the same compound, the viability, T/C (second compound 10 µM, first compound 3.16 µM) was 41.2% and the viability, T/C (second compound 10 µM, first compound 10 µM) was 24.2%.
`CC(C)CC(NC(=O)CNC(=O)c1cc(Cl)ccc1Cl)B1OC(=O)CC(CC(=O)O)(C(=O)O)O1` (stereo not given) + NC1CCC(NC2CC2c2ccccc2)CC1 showed an IC50 (second compound 0.1 µM) of 28.8 nM, an IC50 (second compound 0.316 µM) of 28.8 nM and an IC50 (second compound 1 µM) of 27.4 nM. The IC50 (second compound 3.16 µM) was 20.7 nM, the IC50 (second compound 10 µM) was 14.2 nM and the viability, T/C (second compound 0.1 µM, first compound 0.000316 µM) was 104%. For the same compound, the viability, T/C (second compound 0.1 µM, first compound 0.001 µM) was 106%, the viability, T/C (second compound 0.1 µM, first compound 0.00316 µM) was 107% and the viability, T/C (second compound 0.1 µM, first compound 0.01 µM) was 90.4%. It also gave a viability, T/C [1] of 46.6%, a viability, T/C [2] of 8.2% and a viability, T/C (second compound 0.316 µM, first compound 0.000316 µM) of 105%. For the same compound, the viability, T/C (second compound 0.316 µM, first compound 0.001 µM) was 109%, the viability, T/C (second compound 0.316 µM, first compound 0.00316 µM) was 103% and the viability, T/C (second compound 0.316 µM, first compound 0.01 µM) was 92%. It also gave a viability, T/C [3] of 46.2%, a viability, T/C [4] of 4.8% and a viability, T/C (second compound 1 µM, first compound 0.000316 µM) of 100%. It also gave a viability, T/C (second compound 1 µM, first compound 0.001 µM) of 102%, a viability, T/C (second compound 1 µM, first compound 0.00316 µM) of 102% and a viability, T/C (second compound 1 µM, first compound 0.01 µM) of 91.1%. For the same compound, the viability, T/C [5] was 44.2%, the viability, T/C [6] was 2.51% and the viability, T/C (second compound 3.16 µM, first compound 0.000316 µM) was 92.3%. It also gave a viability, T/C (second compound 3.16 µM, first compound 0.001 µM) of 98.3%, a viability, T/C (second compound 3.16 µM, first compound 0.00316 µM) of 104% and a viability, T/C (second compound 3.16 µM, first compound 0.01 µM) of 83.5%. The viability, T/C [7] was 30.1%, the viability, T/C [8] was 3.89% and the viability, T/C (second compound 10 µM, first compound 0.000316 µM) was 91.4%. It also gave a viability, T/C (second compound 10 µM, first compound 0.001 µM) of 89.2%, a viability, T/C (second compound 10 µM, first compound 0.00316 µM) of 87.8% and a viability, T/C (second compound 10 µM, first compound 0.01 µM) of 62.1%. For the same compound, the viability, T/C [9] was 21% and the viability, T/C [10] was 4.15%.

Source: PubChem BioAssay AID1918955 (Molecular Pharmacology Branch, DTP, NCI, 2023)
